Laboratory results from ChEMBL document CHEMBL3046077, “Synthesis and theoretic calculations of benzoxazoles and docking studies of their interactions with triosephosphate isomerase” (Med Chem Res, 2013).
In brackets after ≈: the same amount, converted by molar mass. Activity calls are given as the source filed them. The rule behind the calls is not given here.

Columns and labels:
Format in all cases: functional, organism-based
Trypanosoma cruzi [1] = assay: Antitrypanosomal activity against trypomastigote form of Trypanosoma cruzi INC5 at 5 to 250 ug/ml after 24 hr by Neubauer counting method
Trypanosoma cruzi [2] = assay: Antitrypanosomal activity against trypomastigote form of Trypanosoma cruzi NINOA at 5 to 250 ug/ml after 24 hr by Neubauer counting method
Trypanosoma cruzi [3] = assay: Antitrypanosomal activity against trypomastigote form of Trypanosoma cruzi INC5 after 24 hr by Neubauer counting method; conditions: INC5, 24 h
Trypanosoma cruzi [4] = assay: Antitrypanosomal activity against trypomastigote form of Trypanosoma cruzi NINOA after 24 hr by Neubauer counting method

| Structure (SMILES) | Activity (Trypanosoma cruzi [1]) | Activity (Trypanosoma cruzi [2]) | IC50 (Trypanosoma cruzi [3]) [mg/L] | IC50 (Trypanosoma cruzi [4]) [mg/L] |
| --- | --- | --- | --- | --- |
| O=C(O)/C=C/c1nc2ccccc2o1 | Active | Active |  |  |
| Cc1ccc2nc(/C=C/C(=O)O)oc2c1 |  |  | 421 (≈ 2070 µM) | 266 (≈ 1310 µM) |
| O=C(Cn1ccnc1[N+](=O)[O-])NCc1ccccc1 [BENZNIDAZOLE] |  |  | 205 (≈ 786 µM) | 117 (≈ 448 µM) |
